Patent US20170348280A1 (priority 2016, published 2017)
Read-outs that look alike come from different tables or passages of the source.

How the values were obtained:
[1] = test system: human vascular smooth muscle cells and fibroblasts; settings: cited from earlier work
[2] = test system: collagen type I ECM deposition by cultured human skin fibroblasts; assay: Collagen type I ECM deposition by cultured human skin fibroblasts (immunoassay); format: cell-based; settings: channel blocker alone, without ascorbate; 72 h; FIG. 1A-1F
Method: (§1) Both cell cultures were maintained in DMEM medium (ATCC) containing antibiotics and 5% fetal bovine serum (FBS, ATCC). All cell cultures were maintained at 37° C. and 5% CO2 atmosphere. Cell viability was monitored with MTT assay.
(§2) Collagen production by human cultured cells: In the case of these experiments, DF or AoSMC, at 5th to 8th passages, were seeded on collagen type I-covered plastic plates (Becton-Dickinson, collagen I isolated from rat tail tendon) at density of 25,000/cm^2 and grown to confluence for 5-7 days. […] Tested compounds were added to cells at indicated concentrations for 72 h in DMEM supplemented with 2% FBS and cell-produced extracellular matrix was exposed by sequential treatment with 0.5% Triton X100 and 20 mM ammonium […] in phosphate buffered saline (PBS, Life Technologies) for 3 min each at room temperature. After four washes with PBS, ECM layers were treated with 1% bovine serum albumin (BSA) in PBS for one hour at room temperature and immediately used in experiments.
Collagen and beta-actin immunoassays: Immunoassays were done by sequential incubation with primary monoclonal antibodies specific to human collagen type I or IV or human beta-actin in 1% BSA/PBS for 2 hours followed by 1 hour incubation with secondary goat anti-mouse IgG antibodies labeled with horse radish peroxidase (HRP). […]

[3] = test system: intracellular content of collagen type I in AoSMC; assay: Intracellular content of collagen type I in AoSMC (immunoassay); format: cell-based, human; settings: for reduction of ascorbate-dependent intracellular collagen type 1 synthesis: 50 μM nifedipine; for reduction of ascorbate-dependent collagen type 1 synthesis: nifedipine
Method: as §1, §2
(§3) Collagen and beta-actin immunoassays: Immunoassays were done by sequential incubation with primary monoclonal antibodies specific to human collagen type I or IV or human beta-actin in 1% BSA/PBS for 2 hours followed by 1 hour incubation with secondary goat anti-mouse IgG antibodies labeled with horse radish peroxidase (HRP).
(§4) Differences between samples were estimated with a two-tailed Student's t-test using MedCalc software (Mariakerke, Belgium) and accepted as significant at p levels less than 0.05.

[4] = test system: ECM deposition of collagen type IV by AoSMC; assay: ECM deposition of collagen type IV by AoSMC (immunoassay); format: cell-based, human; settings: for decrease in ascorbyl palmitate dependent ECM deposition of collagen IV / reduction of ascorbic acid dependent deposition of collagen type IV to the ECM: 50 μM nifedipine; for increased collagen IV deposition: compared to 1.25 μM
Method: as §1, §2, §3, §4

[5] = test system: intracellular content of beta-Actin in AoSMC; assay: Intracellular content of beta-actin in AoSMC (immunoassay); format: cell-based, human; settings: for reduction of ascorbate-dependent beta-actin intracellular content compared to control: 50 μM nifedipine; for reduction of intracellular beta actin content: nifedipine
Method: as §1, §2, §3, §4

[6] = test system: ascorbate accumulation inside human AoSMC; assay: Intracellular ascorbic acid assay in AoSMC; format: cell-based
Method: Cells were washed briefly three times with ice-cold PBS on ice and incubated with 300 μl of 0.1% saponin in 1% ethanol in PBS for 10 min on an orbit mixer. Samples were collected to Eppendorf tubes and centrifuged at 13,000×g for 5 min. Supernatants were used in an ascorbic acid assay (Ascorbic Acid Colorimetric Assay Kit […], BioVision) in accordance with the manufacturer's protocol. […] Differences between samples were estimated with a two-tailed Student's t-test using MedCalc software ([…], Belgium) and accepted as significant at p levels less than 0.05.

[7] = test system: ECM deposition of collagen type I by cultured AoSMC; assay: ECM deposition of collagen type I by cultured AoSMC (immunoassay); settings: for reduction of ascorbyl palmitate dependent deposition of collagen type 1 to the ECM / reduction of ascorbic acid dependent deposition of collagen type 1 to the ECM: 50 μM nifedipine
[8] = test system: intracellular content of collagen type I normalized to beta actin content in aortic smooth muscle cells; assay: Intracellular collagen type I normalized by beta actin content in AoSMC; format: cell-based, human; settings: for reduction of intracellular content of collagen type I normalized to beta actin content compared to the control: 50 μM nifedipine
Method: as §2, §3, §4

[9] = test system: cultured fibroblasts; assay: Cell viability / cytotoxicity (MTT assay), fibroblasts; format: cell-based, human; settings: data not shown
Method: as §1

[10] = test system: smooth muscle cells; assay: Cell viability / cytotoxicity (MTT assay), smooth muscle cells; format: cell-based, human; settings: cultured smooth muscle cells; data not shown
Method: as §1

[11] = cited from earlier work
[12] = 100 μM ascorbic acid compared to 25 μM ascorbic acid
[13] = 400 μM ascorbic acid compared to 25 μM ascorbic acid

For `COc1ccc([C@@H]2Sc3ccccc3N(CCN(C)C)C(=O)[C@@H]2OC(C)=O)cc1` [ditiazem], the “constitutive and platelet-derived growth factor-dependent collagen deposition in the ECM” value [1] is listed as “significantly decreased” and the “inhibition of collagen type I deposition to the ECM” value [2] is listed as “up to 13.1%”.

With `COC(=O)C1=C(C)NC(C)=C(C(=O)OC)C1c1ccccc1[N+](=O)[O-]` [nifedipine] the “reduction of ascorbate-dependent intracellular collagen type 1 synthesis” value ([3]; 25 μM ascorbic acid) was 61%, the “reduction of ascorbate-dependent intracellular collagen type 1 synthesis” value ([3]; 100 μM ascorbic acid) was 49.1% and the “increase of intracellular collagen I compared to control” value ([3]; nifedipine with 400 μM ascorbic acid) was 122%. For the same compound, the “reduction of ascorbate-dependent collagen type 1 synthesis” value ([3]; ascorbyl palmitate at 5 (unit not given)) was 20.3%, the “reduction of ascorbate-dependent collagen type 1 synthesis” value ([3]; ascorbyl palmitate at 20 (unit not given)) was 38% and the “decrease in ascorbyl palmitate dependent ECM deposition of collagen IV” value (“decrease … of collagen IV” below) ([4]; 1.25 μM ascorbyl palmitate) was 23.5%. The “decrease … of collagen IV” value ([4]; 2.5 μM ascorbyl palmitate) was 22.7%, the “decrease … of collagen IV” value ([4]; 5 μM ascorbyl palmitate) was 22% and the “decrease … of collagen IV” value ([4]; 10 μM ascorbyl palmitate) was 13.5%. For the same compound, the “decrease … of collagen IV” value ([4]; 20 μM ascorbyl palmitate) was 31.6%, the “reduction of ascorbic acid dependent deposition of collagen type IV to the ECM” value (shortened to “reduction … of collagen type IV to the ECM”) ([4]; 25 μM ascorbic acid) was 36% and the “reduction … of collagen type IV to the ECM” value ([4]; 100 μM ascorbic acid) was 54%. For the same compound, the “reduction … of collagen type IV to the ECM” value ([4]; 400 μM ascorbic acid) was 43%, the “reduction of ascorbate-dependent beta-actin intracellular content compared to control” value (“reduction … to control” below) ([5]; 25 μM ascorbic acid) was 29% and the “reduction … to control” value ([5]; 100 μM ascorbic acid) was 22.6%. For the same compound, the “reduction … to control” value ([5]; 400 μM ascorbic acid) was 5%, the “reduction of intracellular beta actin content” value ([5]; 5 μM ascorbyl palmitate) was 22% and the “reduction of intracellular beta actin content” value ([5]; 20 μM ascorbyl palmitate) was 23.6%. The “effect on intracellular ascorbate levels” value [6] was “no significant effect”, the “decrease of intracellular ascorbate” value ([6]; 50 μM nifedipine, 100 μM ascorbic acid, 90 min) was 61.5% and the “reduction of ascorbate intracellular content” value ([6]; 50 μM nifedipine, 400 μM ascorbic acid, 90 min) was 67.7%. The “reduction of ascorbyl palmitate dependent deposition of collagen type 1 to the ECM” value ([7]; 1.25 μM ascorbyl palmitate) was 25%, the “reduction of ascorbyl palmitate dependent deposition of collagen type 1 to the ECM” value ([7]; 2.5 μM ascorbyl palmitate) was 38% and the “reduction of ascorbyl palmitate dependent deposition of collagen type 1 to the ECM” value ([7]; 5 μM ascorbyl palmitate) was 27.5%. For the same compound, the “reduction of ascorbyl palmitate dependent deposition of collagen type 1 to the ECM” value ([7]; 10 μM ascorbyl palmitate) was 11%, the “reduction of ascorbyl palmitate dependent deposition of collagen type 1 to the ECM” value ([7]; 20 μM ascorbyl palmitate) was 26.5% and the “reduction of ascorbic acid dependent deposition of collagen type 1 to the ECM” value ([7]; 25 μM ascorbic acid) was 62.3%. The “reduction of ascorbic acid dependent deposition of collagen type 1 to the ECM” value ([7]; 100 μM ascorbic acid) was 41.8%, the “reduction of ascorbic acid dependent deposition of collagen type 1 to the ECM” value ([7]; 400 μM ascorbic acid) was 16.5% and the “reduction of intracellular content of collagen type I normalized to beta actin content compared to the control” value ([8]; 25 μM ascorbic acid) was 46%. The “reduction of intracellular content of collagen type I normalized to beta actin content compared to the control” value ([8]; 100 μM ascorbic acid) was 34.4%, the “increase of collagen I (normalized to beta actin) compared to control” value ([8]; nifedipine, 400 μM ascorbic acid) was 23% and the “effect on collagen I content (normalized to beta actin)” value ([8]; nifedipine, ascorbyl palmitate at 5 μM and 20 μM) was “no significant effect”.

With `COc1cc(CNC(=O)CCCC/C=C/C(C)C)ccc1O` [capsaicin] the “inhibition of collagen type I deposition to the ECM” value [2] was “slight, insignificant inhibition”.

In the case of `CCCCCCCCCCCCCCCC(=O)OC[C@H](O)[C@H]1OC(=O)C(O)=C1O` [ascorbyl palmitate], the “levels found to be cytotoxic” value [9] is reported as “higher than 20 μM”, the “increased collagen IV deposition” value ([4]; 2.5 μM ascorbyl palmitate alone) is reported as 113% and the “increased collagen IV deposition” value ([4]; 5 μM ascorbyl palmitate alone) is reported as 144%. The “increased collagen IV deposition” value ([4]; 10 μM ascorbyl palmitate alone) was 138%, the “increased collagen IV deposition” value ([4]; 20 μM ascorbyl palmitate alone) was 168% and the “higher intracellular levels of ascorbic acid compared to the highest concentration of ascorbic acid used (400)” value ([6]; supplementation with 20 ascorbyl palmitate (unit not given)) was 10 ×. The “increase of collagen type 1 ECM deposition” value ([7]; 2.5 μM ascorbyl palmitate administered individually, compared to 1.25 μM) was 135%, the “increase of collagen type 1 ECM deposition” value ([7]; 5 μM ascorbyl palmitate administered individually, compared to 1.25 μM) was 189% and the “increase of collagen type 1 ECM deposition” value ([7]; 10 μM ascorbyl palmitate administered individually, compared to 1.25 μM) was 184%. For the same compound, the “increase of collagen type 1 ECM deposition” value ([7]; 20 μM ascorbyl palmitate administered individually, compared to 1.25 μM) was 212% and the “levels found to be cytotoxic” value [10] was “higher than 20 μM”.

In the case of `COc1ccc(CCN(C)CCCC(C#N)(c2ccc(OC)c(OC)c2)C(C)C)cc1OC` (stereo not drawn) [verapamil], the “constitutive and platelet-derived growth factor-dependent collagen deposition in the ECM” value [1] is listed as “significantly decreased”.

In the case of `C=C[C@H]1C[N@@]2CC[C@H]1C[C@@H]2[C@@H](O)c1ccnc2ccc(OC)cc12` [quinidine], the “effects on ascorbic acid dependent collagen type I and type IV deposition in AoSMC” value ([7]; compared with nifedipine, data not shown) is reported as “comparable results”.

In the case of `O=C1O[C@H]([C@@H](O)CO)C(O)=C1O` [ascorbic acid], the excretion half-life ([11]; body stores depleted, by the onset of the first symptoms of scurvy) is given as 83 days, the “renal resorption threshold (plasma level)” value ([11]; men) is given as “about 1.5 mg/dL” and the “half-life of excretion in the urine” value ([11]; plasma concentrations larger than renal resorption threshold) is given as “about 30 minutes”. The “renal resorption threshold (plasma level)” value ([11]; women) was roughly 1.3 mg/dL, the “increased collagen IV ECM deposition” value [4, 12] was 175% and the “increased collagen IV ECM deposition” value [4, 13] was 166%. The “increase of collagen type 1 ECM deposition” value [7, 12] was 114% and the “increase of collagen type 1 ECM deposition” value [7, 13] was 176%.
